Measurements published in patent publication US6479653B1, “Compositions and method for regulation of transcription” (ARIAD Gene Therapeutics, Inc., priority 1997, dated 2002).
Entries after “also recorded” stand apart in the source; their conditions may differ.

B1: RMTSV: VP16 activation domain fused to RMTS (FRB-minimal lac repressor tetramerization domain-p65) (protein)
chain: EMWHEGLEEASRLYFGERNVKGMFEVLEPLHAMMERGPQTLKETSFNQAYGRDLMEAQEWCRKYMKSGNVKDLTQAWDLYYHVFRRISKVKRKTTLAPNTQTASPRALADSLMQLARQVSRLESGQDEFPTMVFPSGQISQASALAPAPPQVLPQAPAPAPAPAMVSALAQAPAPVPVLAPGPPQAVAPPAPKPTQAGEGTLSEALLQLQFDDEDLGALLGNSTDPAVFTDLASVDNSEFQQLLNQGIPVAPHTTEPMLMEYPEAITRLVTGAQRPPDPAPAPLGAPGLPNGLLSGDEDFSSIADMDFSALLSQISSLGDELHLDGEDVAMAHADALDDFDLDMLGDGDSPGPGFTPHDSAPYGALDMADFEFEQMFTDALGIDEYGG
modifications: left off: small tags and cut ends

Tests used:
reporter gene = test: Transcription assay of p65 activation domain mutants; format: cell-based; settings: for potency of p65 activation domain to induce the reporter gene, relative to wild type: mutated p65 activation domain
Description: Thus, in one embodiment of this invention, mutations are introduced into the activation domain by standard techniques known in the art, such as site-directed PCR based mutagenesis. In this embodiment, one to five, in some cases one to three, alterations in peptide sequence can be introduced into the DNA coding for the activation domain. Each of these mutations either alone or in combination with one or more other mutations may be readily assayed for its ability to induce the transcription of either transiently transfected or stably integrated target reporter gene constructs. For instance, a construct encoding a fusion protein containing multiple copies of the modified sequence and a DNA binding domain can be introduced into cells and the activity of the encoded fusion protein measured in transcription assays (with a responsive reporter gene construct) and compared to analogous fusion proteins containing wild-type activation domain sequence or a different mutation of interest.
The foregoing is illustrated in the case of the p65 transcription activation domains. Constructs are prepared encoding fusion proteins containing one or more p65 transcription activation domains and a DNA binding domain. The p65 domains may be wild-type (as a control) or may contain any of a variety of alterations in peptide sequence. These mutations can generally be introduced into a variety of p65-derived transcription activation domains. For example, M1 mutations can be introduced into plasmids carrying p65 activation domain coding regions between amino acids 533 and 550, or 361 and 550, or 280 and 550.
Exemplary mutations for p65 transcription activation domains include those intended to increase the potency of the p65 activation domain (including the M1, M2, M6, M7 and M8 mutations) and those intended to decrease the potency (generally slightly) of the activation domain. […] Mutations of the M4 and M5 class change the conserved serine and proline residues between amino-acids 361 and 450. […] In GST pull down assays, the region of the M4 and M5 mutations interacts with TFIIA. […] Thus, mutations for the practitioner to bear in mind include, but are not limited to, the following: […]

[1] = tested on: GAL4 responsive reporter gene; test: Rapamycin-induced expression of stably integrated GAL4-responsive SEAP reporter in transfected HT1080 B cells; format: cell-based

Molecule	expression of target genes when fused to other acidic type activation domains (reporter gene)	potency of p65 activation domain to induce the reporter gene, relative to wild type (reporter gene)	further results
377-GALALGAGGQVL(SEQ ID NO:11) [M4]	synergistically	very small effect	–
401-GALAQAGAGVG (SEQ ID NO:13) [M5]	synergistically	very small effect	–
CO[C@H]1C[C@@H]2CC[C@@H](C)[C@@](O)(O2)C(=O)C(=O)N2CCCC[C@H]2C(=O)O[C@H]([C@H](C)C[C@@H]2CC[C@@H](O)[C@H](OC)C2)CC(=O)[C@H](C)/C=C(\C)[C@@H](O)[C@@H](OC)C(=O)[C@H](C)C[C@H](C)/C=C/C=C/C=C/1C [rapamycin, reference compound]	–	–	rapamycin concentration giving peak levels of reporter gene expression ([1]; GF4 with RS, RMTS or RMTSV): 10 nM
529-GDEDASSIADMDASALLSQI (SEQ ID NO:9) [F 533 and F 541 to alanine residues]	–	half of wild type level	–
B1	–	–	reporter gene expression at 1 nM rapamycin ([1]; GF4 DNA binding receptor, 1 nM rapamycin in the medium): induced the reporter gene expression robustly; reporter gene expression at the lowest level of activation domains expressed ([1]; fixed amount of GF4, 10 nM rapamycin): robust activation of reporter gene expression; also recorded: exceeded the level stimulated by the highest amount of RS fusion proteins
